Data published in patent US7855292B2, “Sulfonamide compounds” (Janssen Pharmaceutica NV, priority 2004, dated 2010).
Counter-ions that a name gives are not always drawn.

Biological target: T1, CCK-1 receptor (Homo sapiens, UniProt P32238)
T1 construct: expressed in transfected cells; host or cells: CHO-K1
T1 sequence (P32238 1-428): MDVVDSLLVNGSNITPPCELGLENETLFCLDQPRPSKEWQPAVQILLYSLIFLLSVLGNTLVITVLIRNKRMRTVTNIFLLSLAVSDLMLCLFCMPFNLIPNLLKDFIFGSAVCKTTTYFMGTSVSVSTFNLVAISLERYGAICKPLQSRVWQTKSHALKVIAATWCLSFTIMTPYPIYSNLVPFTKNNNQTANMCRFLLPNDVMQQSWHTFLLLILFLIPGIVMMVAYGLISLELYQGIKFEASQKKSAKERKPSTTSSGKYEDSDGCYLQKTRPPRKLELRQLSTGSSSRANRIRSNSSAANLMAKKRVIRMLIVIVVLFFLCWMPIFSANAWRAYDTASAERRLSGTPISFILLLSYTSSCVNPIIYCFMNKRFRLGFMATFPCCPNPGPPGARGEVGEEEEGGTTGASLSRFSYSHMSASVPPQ
Assay: CCK1 binding assay ([125I]-BH-CCK-8S displacement, CHO-K1 membranes)
Conditions: membranes of CHO-K1 cells stably transfected with the CCK-1 receptor; 20 pM [125I]-BH-CCK-8S; 0.3 μM PD-134,308 present; 60 min at 21±3° C.
Experimental: 1. CCK1 Assay Development and Data Generation
CHO-K1 cells that had undergone stable transfection with the CCK-1 receptor were grown in DMEM supplemented with L-glutamine (2 mM), penicillin (50 units/mL) and streptomycin (50 μg/mL). Cells were cultured under continuous G418 selection (2 mM) and were harvested using a rubber cell scraper. CHO-K1 cells were sub-cultured a maximum of ten times before being reseeded from the original stocks.
Membranes were prepared from the stably transfected CHO-K1 cells. Frozen cell pellets (−40° C.) were thawed in 14 mL of buffer A (10 mM HEPES, 130 mM NaCl, 4.7 mM KCl, 5 mM MgCl, 1 mM EGTA and 15.4 mg/100 mL bacitracin at pH 7.2), adapted from Harper et al. (Br. J. Pharmacol. 1996, 118:1717-1726). The thawed pellets were homogenized using a Polytron PT-10 (7×1 s). The homogenates were centrifuged for 5 min at 1500 rpm (600×g), and the resulting pellets were discarded. The supernatants were re-centrifuged in order to collect the receptor-membrane pellets (25 min 15,000 rpm; 39,800×g), which were re-suspended in buffer A.
All assays were conducted in 96-well plates (GF/B millipore filter plates) using buffer A, with 0.3 μM PD-134,308, for the dilutions. The CCK-2 receptor ligand was included to eliminate the contribution of this receptor subtype to the binding. For the optimal cell number determination experiments 20 pM [^125I]-BH-CCK-8S (50 μL […] solution) was incubated with a range of cell concentrations ([…] to 12.5×10^5 cells/well) in a total volume of 150 μL. Total binding of [^125I]-BH-CCK-8S was determined in the presence of 15 μL of buffer A. Non-specific binding of [^125I]-BH-CCK-8S was determined in the presence of 15 μL of 100 μM 2-naphthalenesulphonyl L-aspartyl-(2-phenethyl)amide (2-NAP: see R. A. Hull et al. Br. J. Pharmacol. 1993, 108:734-740), a CCK-1 receptor selective antagonist that is structurally unrelated to the radioligand [^125I]-BH-CCK-8S. The assay preparation was incubated for 1 h at 21±3° C., and then the assay was terminated upon rapid filtration of the preparation under reduced pressure. The loaded filters were washed three times using undiluted PBS ([…]), and then the residues were transferred to 5 mL scintillation tubes. Bound radioactivity was determined using a gamma counter (count time=1 min). […] To validate the radioligand concentration and incubation time for the assay, saturation and kinetic binding studies were also conducted (see M. F. Morton, The Pharmacological Characterization of Cholecystokinin Receptors in the Human Gastrointestinal Tract. PhD Thesis, University of London, 2000). […] The assay was then terminated according to the procedure outlined above.
(§1) 3. Data Analysis for CCK1 and CCK2 Binding Assays
The pKi values were determined using the equation of Y.-C. Cheng and W. H. Prusoff (Biochem. Pharmacol., 1973, 22(23):3099-3108):
(§2) [formula] To circumvent problems associated with computer-assisted data analysis of compounds with low affinity, the data obtained in the current study were weighted according to a method described by Morton. In brief, 100% and 0% specific binding were defined independently using total binding and binding obtained in the presence of a high concentration of the reference antagonist, 2-NAP.

| CCK1 pKi | Compound |
| --- | --- |
| 7.1 | O=C(N[C@H](Cc1ccc(Cl)c(Cl)c1)C(=O)O)c1ccc(Cl)cc1NS(=O)(=O)c1cccc2nsnc12 [Example 118, (R)-2-[2-(Benzo[1,2,5]thiadiazole-4-sulfonylamino)-4-chloro-benzoylamino]-3-(3,4-dichloro-phenyl)-propionic acid] |
| 7.5 | O=C(NCC(c1ccc(Cl)cc1)c1ccc(Cl)cc1)c1ccc(Cl)cc1NS(=O)(=O)c1cccc2nsnc12 [Example 6, 2-(Benzo[1,2,5]thiadiazole-4-sulfonylamino)-N-[2,2-bis-(4-chloro-phenyl)-ethyl]-4-chloro-benzamide] |

Same assay, conditions: membranes of CHO-K1 cells stably transfected with the CCK-1 receptor; 20 pM [125I]-BH-CCK-8S; 0.3 μM PD-134,308 present; 60 min at 21±3° C.; read-out: CCK1 pKi (converted)

| Ki | Compound |
| --- | --- |
| 158 nM | C[C@@H](NC(=O)c1ccc(Cl)cc1NS(=O)(=O)c1cccc2nsnc12)C(O)(c1ccccc1)c1ccccc1 [Example 73, (R)-2-(Benzo[1,2,5]thiadiazole-4-sulfonylamino)-4-chloro-N-(2-hydroxy-1-methyl-2,2-diphenyl-ethyl)-benzamide] |

Biological target: T2, CCK2 receptor (Homo sapiens, UniProt P32239)
T2 construct: analyzed for ZFP expression as well as CCK2R induction upon addition of doxycycline to the culture medium; endogenous in cells
T2 sequence (P32239 1-447): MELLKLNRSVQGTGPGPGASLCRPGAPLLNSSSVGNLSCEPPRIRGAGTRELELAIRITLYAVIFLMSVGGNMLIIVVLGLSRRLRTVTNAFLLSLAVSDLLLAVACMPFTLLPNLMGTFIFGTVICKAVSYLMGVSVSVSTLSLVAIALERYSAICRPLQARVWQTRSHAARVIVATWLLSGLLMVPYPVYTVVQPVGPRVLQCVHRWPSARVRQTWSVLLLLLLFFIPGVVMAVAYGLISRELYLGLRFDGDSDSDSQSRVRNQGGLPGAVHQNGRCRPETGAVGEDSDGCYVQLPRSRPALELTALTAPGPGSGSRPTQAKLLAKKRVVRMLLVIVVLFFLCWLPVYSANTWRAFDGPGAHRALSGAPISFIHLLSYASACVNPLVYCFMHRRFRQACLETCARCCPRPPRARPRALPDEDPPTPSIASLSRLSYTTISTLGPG
Assay: CCK2 binding assay ([125I]-BH-CCK-8S displacement, HEKZFP membranes)
Conditions: membranes of doxycycline-induced HEKZFP cells; 20 pM [125I]-BH-CCK-8S; 60 min at 21±3° C.
Experimental: 2. CCK2 Assay Development and Data Generation
Zinc Finger Proteins (ZFP) specific for the CCK2R gene were identified by Sangamo Biosciences. The ZFP domain was fused with the herpes simplex virus VP16 activation domain, and the fusion protein was subsequently cloned into the pcDNA3 mammalian expression vector (Invitrogen, San Diego, Calif.). […] After 2 weeks of selection in culture medium containing […] Zeocin (Invitrogen), sixty drug-resistant stable clones were isolated and analyzed for ZFP expression as well as CCK2R induction upon addition of doxycycline to the culture medium.
HEKZFP cells were grown in DMEM supplemented with L-glutamine (2 mM), penicillin (50 units/mL) and streptomycin (50 μg/mL) and 10% FBS (v/v).
Membranes were prepared from the HEKZFP cells after induction. […] The thawed pellets were homogenized using a Polytron PT-10 (7×1 s). The homogenates were centrifuged for 5 min at 1500 rpm (600×g), and the resulting pellets were discarded. The supernatants were re-centrifuged in order to collect the receptor-membrane pellets (25 min 15,000 rpm; 39,800×g), which were re-suspended in buffer A.
The assay preparation was incubated for 1 h at 21±3° C., and then the assay was terminated by rapid filtration of the preparation under reduced pressure. The loaded filters were washed three times using undiluted PBS (100 μL), and then 100 μL of scintillation fluid was added to the filter plate. Bound radioactivity was determined using a Topcount (Packard BioScience, Meriden, Conn.) with a count time of 1 min. […] To validate the radioligand concentration and incubation time for the assay, saturation and kinetic binding studies were also conducted (see M. F. Morton, The Pharmacological Characterization of Cholecystokinin Receptors in the Human Gastrointestinal Tract. PhD Thesis, University of London, 2000). […] The assay was then terminated according to the procedure outlined above.
as §1
The pKi values were determined using the equation of Y.-C.
as §2

| CCK2 pKi | Compound |
| --- | --- |
| 8.0 | O=C(N[C@@H](Cc1ccc(F)c(Br)c1)C(=O)O)c1cc(Cl)c(Cl)cc1NS(=O)(=O)c1cccc2nsnc12 [Example 157, (S)-2-[2-(Benzo[1,2,5]thiadiazole-4-sulfonylamino)-4,5-dichloro-benzoylamino]-3-(3-bromo-4-fluoro-phenyl)-propionic acid] |
| 5.9 | O=C(N[C@H](C(=O)O)C(c1ccc(Cl)cc1)c1ccc(Cl)cc1)c1ccc(Cl)cc1NS(=O)(=O)c1cccc2nsnc12 [Example 106, (S)-2-[2-(Benzo[1,2,5]thiadiazole-4-sulfonylamino)-4-chloro-benzoylamino]-3,3-bis-(4-chloro-phenyl)-propionic acid] |

Same assay, conditions: membranes of doxycycline-induced HEKZFP cells; 20 pM [125I]-BH-CCK-8S; 60 min at 21±3° C.; read-out: CCK2 pKi (converted)

| Ki | Compound |
| --- | --- |
| 794 nM | CN(CCc1ccccn1)C(=O)c1ccc(Cl)cc1NS(=O)(=O)c1cccc2nsnc12 [Example 51, 2-(Benzo[1,2,5]thiadiazole-4-sulfonylamino)-4-chloro-N-methyl-N-(2-pyridin-2-yl-ethyl)-benzamide hydrochloride] |
| 31.6 nM | O=C(N[C@@H](Cc1cccc([N+](=O)[O-])c1)C(=O)O)c1ccc(Cl)cc1NS(=O)(=O)c1cccc2nccnc12 [Example 84, (S)-2-[4-Chloro-2-(quinoxaline-5-sulfonylamino)-benzoylamino]-3-(3-nitro-phenyl)-propionic acid] |
| 31.6 nM | O=C(N[C@@H](Cc1ccsc1)C(=O)O)c1ccc(Cl)cc1NS(=O)(=O)c1cccc2nsnc12 [Example 77, (S)-2-[2-(Benzo[1,2,5]thiadiazole-4-sulfonylamino)-4-chloro-benzoylamino]-3-thiophen-3-yl-propionic acid] |
| 63.1 nM | O=C(N[C@@H](Cc1ccc(F)c(F)c1)C(=O)O)c1ccc(Cl)cc1NS(=O)(=O)c1cccc2nccnc12 [Example 85, (S)-2-[4-Chloro-2-(quinoxaline-5-sulfonylamino)-benzoylamino]-3-(3,4-difluoro-phenyl)-propionic acid] |
| 31.6 nM | N#Cc1cccc(C[C@H](NC(=O)c2ccc(Cl)cc2NS(=O)(=O)c2cccc3nccnc23)C(=O)O)c1 [Example 63, (S)-2-[4-Chloro-2-(quinoxaline-5-sulfonylamino)-benzoylamino]-3-(3-cyano-phenyl)-propionic acid] |
| 39.8 nM | O=C(N[C@@H](Cc1ccccc1)C(=O)O)c1ccc(Br)cc1NS(=O)(=O)c1cccc2nsnc12 [Example 25, 2-[2-(Benzo[1,2,5]thiadiazole-4-sulfonylamino)-4-bromo-benzoylamino]-3-phenyl-propionic acid] |
| 79.4 nM | O=C(N[C@@H](Cc1ccccc1)C(=O)O)c1ccc(I)cc1NS(=O)(=O)c1cccc2scnc12 [Example 28, 2-[2-(Benzothiazole-4-sulfonylamino)-4-iodo-benzoylamino]-3-phenyl-propionic acid] |
| 31.6 nM | O=C(N[C@@H](Cc1ccccc1)C(=O)O)c1ccc(I)cc1NS(=O)(=O)c1cccc2nccnc12 [Example 27, 2-[4-Iodo-2-(quinoxaline-5-sulfonylamino)-benzoylamino]-3-phenyl-propionic acid] |
| 31.6 nM | N#Cc1ccc(C[C@H](NC(=O)c2ccc(Cl)cc2NS(=O)(=O)c2cccc3nccnc23)C(=O)O)cc1 [Example 86, (S)-2-[4-Chloro-2-(quinoxaline-5-sulfonylamino)-benzoylamino]-3-(4-cyano-phenyl)-propionic acid] |
| 158 nM | O=C(N[C@@H](Cc1ccsc1)C(=O)O)c1ccc(Cl)cc1NS(=O)(=O)c1cccc2nccnc12 [Example 87, (S)-2-[4-Chloro-2-(quinoxaline-5-sulfonylamino)-benzoylamino]-3-thiophen-3-yl-propionic acid] |
